Assay results: paper PMC3466204 (PLoS ONE, 2012)
Several values for one entry are separate records, joined by “and”; a condition that tells them apart may be missing. Equal values may be shown once. Ends that are not written are not given here.

Assays:
E. durans 5133 = assay: Broth MIC, Gram positive; type: cell-based, Enterococcus durans; conditions: broth microtitre, BSA pre-treated plates, 10^5 cfu ml^−1, 2-fold dilutions from 2.5 µM, 16 h 37°C, purified peptide, mean of triplicate assays
Protocol: (§1) Minimum inhibitory concentration determinations for Gram positive organisms were carried out in triplicate in microtitre plates (Sarstedt). 96 well microtitre plates were pre-treated with bovine serum albumin (BSA) prior to addition of the peptides. Briefly, to each well of the microtitre plate 200 µL of phosphate buffered saline (PBS) containing 1% (w/v) bovine serum albumin (PBS/BSA) was added and incubated at 37°C for 30 min. The wells were washed with 200 µL PBS and allowed to dry. Target strains were grown overnight in the appropriate conditions and medium, subcultured into fresh broth and allowed to grow to an OD600 of ∼0.5, diluted to a final concentration of 10^5 cfu ml^−1 in a volume of 0.2 ml. Wild type nisin and nisin mutant peptides were adjusted to a 10 µM (S. mitis, B. cereus), 7.5 µM (L. monocytogenes), 5 µM (hVISA) 2.5 µM (MRSA, E. durans), or 500 nM (L. lactis strains) starting concentration and 2-fold serial dilutions of each peptide were added to the target strain.

Lactococcus lactis HP = assay: Agarose-based assay of cell-free supernatants of S29X producing strains; conditions: for Zone Diameter (mm): agarose (1%) GM17 assay, 10 µl cell-free supernatant of overnight producing culture in 4.6 mm wells, L. lactis HP, 30°C; for % difference (zone relative to wild type): agarose assay of supernatants against L. lactis HP, wild type serine = 100
Protocol: (§2) Agarose-based deferred antagonism assays were carried out as follows: GM17/LB (0.03%) underlay was prepared with 10 mM sodium phosphate buffer (SPB) at pH 7.4 to which was added agarose (1% w/v agarose), autoclaved and cooled to 50°C. Bacteria grown to mid-logarithmic phase were harvested by centrifugation and washed with 10 mM SPB at pH 7.4. Bacteria were then added to 15 mls cooled underlay medium to reach a concentration of 2×10^7 colony-forming units (CFU)/mL. The inoculated medium was rapidly transferred into sterile Petri plates, allowed to solidify and dried. Wells (4.6 mm in diameter) were then made in the seeded plates. 10 µl volumes of cell-free supernatant from overnight nisin derivative producing cultures or resuspended purified peptides were then added to the wells and the plates incubated at 30°C (L. lactis) or 37°C (Gram positive strains) or RT (Gram negative strains) for 3 hours. Polymyxin B (Sigma Aldrich) was used at a concentration of 20 µg/ml. The plates were then overlaid with 15 mls of autoclaved double strength GM17 (L. lactis) or LB (Gram negatives) agarose (1% w/v agarose) overlay medium precooled to 50°C. The plates were then incubated overnight at the relevant temperature.

S. mitis UCC5000 = assay: Broth MIC, Gram positive; type: cell-based, Streptococcus mitis; conditions: broth microtitre, BSA pre-treated plates, 10^5 cfu ml^−1, 2-fold dilutions from 10 µM, 16 h 37°C, purified peptide, mean of triplicate assays
Protocol: as §1

E. coli = assay: Kill curve analysis; type: cell-based; conditions: 33 mg/L purified peptide, 2×10^5 cfu ml^−1, 37°C for 1 hour
Protocol: (§3) Using purified peptide in each case, 10 mM sodium phosphate buffer washed C. sakazakii, E. coli and Salmonella strains were diluted to a final concentration of 2×10^5 cfu ml^−1 and were exposed to nisin A, S29G and S29A at a concentration of 33 mg/L. Following incubation at 37°C for 1 hour, bacterial growth was monitored through plate counts.

S. typhimurium UK-1 = assay: Kill curve analysis; type: cell-based, Salmonella enterica serovar Typhimurium; conditions: 33 mg/L purified peptide, 2×10^5 cfu ml^−1, 37°C for 1 hour
Protocol: as §3

C. sakazakii DPC 6440 [1] = assay: Agarose gel diffusion assay, peptide alone or with polymyxin B nonapeptide (PMBN); type: cell-based, Cronobacter sakazakii; conditions: for Total area of inhibitory zone, peptide alone: purified peptide 30 µM alone; for Total area of inhibitory zone, peptide + PMBN: purified peptide 30 µM in combination with polymyxin B nonapeptide (PMBN) 20 µg/ml
Protocol: as §2
Polymyxin B (PMB) is a cyclic lipodecapaptide produced by bacteria of the genus Paenibacillus that acts primarily on the Gram negative cell wall, leading to rapid permeability changes in the cytoplasmic membrane and ultimately cell death. […] To that end, C. sakazakii DPC 6440 cells were treated with purified nisin A, S29G and S29A peptides alone (30 µM) or in combination with PMBN at a concentration of 20 µg/ml and determined the antimicrobial activity by agarose gel diffusion assay (Fig. 5). […] When used in combination with PMBN, a substantial synergistic effect was clearly evident (Fig. 5) but in this instance no significant difference in efficacy was observed between nisin A or either of the derivatives S29A or S29G.

[2] = tested on: Salmonella enterica serovar Typhimurium UK1; assay: Agarose gel diffusion assay, purified peptide; type: cell-based; conditions: purified peptide 60 µM; for Zone of inhibition, agarose gel diffusion: Salmonella Typhimurium UK1, mean of triplicate assays
Protocol: as §2

E. coli 0157-H7 [3] = assay: Agarose gel diffusion assay, purified peptide; type: cell-based; conditions: purified peptide 60 µM; for Zone of inhibition, agarose gel diffusion: E. coli 0157-H7, mean of triplicate assays
Protocol: as §2

[4] = tested on: hVISA 32679 (heterogenous Vancomycin-intermediate S. aureus); assay: Broth MIC, Gram positive; type: cell-based; conditions: broth microtitre, BSA pre-treated plates, 10^5 cfu ml^−1, 2-fold dilutions from 5 µM, 16 h 37°C, purified peptide, mean of triplicate assays
Protocol: as §1

L. lactis MG1363 [5] = assay: Broth MIC, Gram positive; type: cell-based; conditions: broth microtitre, BSA pre-treated plates, 10^5 cfu ml^−1, 2-fold dilutions from 500 nM, 16 h, purified peptide, mean of triplicate assays
Protocol: as §1

L. lactis HP = assay: Broth MIC, Gram positive; type: cell-based; conditions: broth microtitre, BSA pre-treated plates, 10^5 cfu ml^−1, 2-fold dilutions from 500 nM, 16 h, purified peptide, mean of triplicate assays
Protocol: as §1

S. aureus RF122 = assay: Broth MIC, Gram positive; type: cell-based; conditions: broth microtitre, BSA pre-treated plates, 10^5 cfu ml^−1, 2-fold dilutions, 16 h 37°C, purified peptide, mean of triplicate assays
Protocol: as §1

L. monocytogenes 10403S = assay: Broth MIC, Gram positive; type: cell-based; conditions: broth microtitre, BSA pre-treated plates, 10^5 cfu ml^−1, 2-fold dilutions from 7.5 µM, 16 h 37°C, purified peptide, mean of triplicate assays
Protocol: as §1

L. monocytogenes LO28 = assay: Broth MIC, Gram positive; type: cell-based; conditions: broth microtitre, BSA pre-treated plates, 10^5 cfu ml^−1, 2-fold dilutions from 7.5 µM, 16 h 37°C, purified peptide, mean of triplicate assays
Protocol: as §1

[6] = tested on: ST 530 (Methicillin resistant S. aureus); assay: Broth MIC, Gram positive; type: cell-based; conditions: broth microtitre, BSA pre-treated plates, 10^5 cfu ml^−1, 2-fold dilutions from 2.5 µM, 16 h 37°C, purified peptide, mean of triplicate assays
Protocol: as §1

[7] = tested on: ST 528 (Methicillin resistant S. aureus); assay: Broth MIC, Gram positive; type: cell-based; conditions: broth microtitre, BSA pre-treated plates, 10^5 cfu ml^−1, 2-fold dilutions from 2.5 µM, 16 h 37°C, purified peptide, mean of triplicate assays
Protocol: as §1

C. sakazakii DPC 6440 [8] = assay: Agarose gel diffusion assay, purified peptide; type: cell-based, Cronobacter sakazakii; conditions: purified peptide 60 µM; for Zone of inhibition, agarose gel diffusion: C. sakazakii DPC 6440, mean of triplicate assays
Protocol: as §2

B. cereus DPC 6088 = assay: Broth MIC, Gram positive; type: cell-based, Bacillus cereus; conditions: broth microtitre, BSA pre-treated plates, 10^5 cfu ml^−1, 2-fold dilutions from 10 µM, 16 h 37°C, purified peptide, mean of triplicate assays
Protocol: as §1

B. cereus DPC 6089 = assay: Broth MIC, Gram positive; type: cell-based, Bacillus cereus; conditions: broth microtitre, BSA pre-treated plates, 10^5 cfu ml^−1, 2-fold dilutions from 10 µM, 16 h 37°C, purified peptide, mean of triplicate assays
Protocol: as §1

C. sakazakii DPC 6440 [9] = assay: Kill curve analysis; type: cell-based, Cronobacter sakazakii; conditions: 33 mg/L purified peptide, 2×10^5 cfu ml^−1, 37°C for 1 hour
Protocol: as §3

C. sakazakii DPC 6440 [10] = assay: Broth MIC, Gram negative; type: cell-based, Cronobacter sakazakii; conditions: cells washed in 10 mM SPB pH 7.4, 2×10^5 CFU/mL, 2 h RT with peptide, then double strength LB, RT overnight, mean of triplicate assays
Protocol: (§4) Minimum inhibitory concentration determinations for Gram negative strains were carried out in triplicate in 96 well microtitre plates. Briefly, bacteria (E. coli, C. sakazakii and Salmonella) grown to mid-logarithmic phase were harvested by centrifugation, washed with 10 mM SPB at pH 7.4, and diluted to 2×10^5 colony-forming units (CFU)/mL in SPB. Nisin and nisin derivative peptides were resuspended in sterile HPLC water and 50 µL aliquots were added to wells containing 50 µL of 2×10^5 CFU of bacteria. Plates were incubated at RT for two hours with agitation. Double strength Luria–Bertani (LB) broth (100 µL) was added and the plates were incubated at RT overnight, the MIC was taken as the lowest concentration at which growth was inhibited.

[11] = tested on: Salmonella enterica serovar Typhimurium UK1; assay: Broth MIC, Gram negative; type: cell-based; conditions: cells washed in 10 mM SPB pH 7.4, 2×10^5 CFU/mL, 2 h RT with peptide, then double strength LB, RT overnight, mean of triplicate assays
Protocol: as §4

E. coli 0157-H7 [12] = assay: Broth MIC, Gram negative; type: cell-based; conditions: cells washed in 10 mM SPB pH 7.4, 2×10^5 CFU/mL, 2 h RT with peptide, then double strength LB, RT overnight, mean of triplicate assays
Protocol: as §4

L. lactis MG1363 [13] = conditions: truncated nisin, ref [36]; cited from earlier work
From the text: The increased efficacy resulted from a single mutation located at serine 29, within the C-terminal of nisin. The importance of Serine 29 for activity has previously been noted when Chan et al report ...

## S29A: bioengineered nisin A derivative, serine 29 replaced by alanine (ITSISLCTPGCKTGALMGCNMKTATCHCAIHVSK; not fully specified (residues 2, 5, 33, bridges); cysteine pairing not given here; UniProt P13068 24-57, looked up, variant S29A)
E. durans 5133
  MIC: 0.13 mg/L and 0.039 µM
Lactococcus lactis HP
  Zone Diameter (mm): 16.6±0.3 mm
  % difference (zone relative to wild type): 109 (0.004) %
S. mitis UCC5000
  MIC: 4.19 mg/L
E. coli
  Killing compared with nisin A (plate counts): greater activity than wildtype nisin A
S. typhimurium UK-1
  Killing compared with nisin A (plate counts): greater activity than wildtype nisin A
C. sakazakii DPC 6440 [1]
  Total area of inhibitory zone, peptide alone: 49.0±1.24 mm^2
  Total area of inhibitory zone, peptide + PMBN: 121.5±6.3 mm^2
[2]
  Zone of inhibition, agarose gel diffusion: 11.29±0.23 mm
[2]; Salmonella Typhimurium UK1, relative to nisin A
  Zone as % wt: 114 % wt
E. coli 0157-H7 [3]
  Zone of inhibition, agarose gel diffusion: 11.50±0.05 mm
E. coli 0157-H7 [3]; E. coli 0157-H7, relative to nisin A
  Zone as % wt: 117 % wt
[4]
  MIC: 2 mg/L and 0.625 µM
L. lactis MG1363 [5]
  MIC: 0.2 mg/L and 0.062 µM
L. lactis HP
  MIC: 0.1 mg/L and 0.031 µM
S. aureus RF122
  MIC: 0.52 mg/L and 0.156 µM
L. monocytogenes 10403S
  MIC: 6.28 mg/L and 1.875 µM
L. monocytogenes LO28
  MIC: 3.14 mg/L and 0.937 µM
[6]
  MIC: 0.26 mg/L and 0.078 µM
[7]
  MIC: 0.26 mg/L and 0.078 µM
C. sakazakii DPC 6440 [8]
  Zone of inhibition, agarose gel diffusion: 11.65±0.12 mm
C. sakazakii DPC 6440 [8]; C. sakazakii DPC 6440, relative to nisin A
  Zone as % wt: 119 % wt
B. cereus DPC 6088
  MIC: 2 mg/L
B. cereus DPC 6089
  MIC: 4.19 mg/L and 1.25 µM
C. sakazakii DPC 6440 [9]
  Killing compared with nisin A (plate counts): greater activity than wildtype nisin A
C. sakazakii DPC 6440 [10]
  MIC: 6.28 mg/L and 1.875 µM
[11]
  MIC: 50.28 mg/L and 15 µM
E. coli 0157-H7 [12]
  MIC: 25.14 mg/L and 7.5 µM

## nisin 1–28: truncated version of nisin, literature (ITSISLCTPGCKTGALMGCNMKTATCHC; ends and bridges not checked; cysteine pairing not given here; UniProt P13068 24-51, looked up, fragment)
L. lactis MG1363 [13]
  fold reduced inhibitory activity relative to nisin: 100 fold

## nisin A (ITSISLCTPGCKTGALMGCNMKTATCHCSIHVSK; thioether (positions not given here); not fully specified (residues 2, 5, 33, bridges); also: lantibiotic, ring and dehydro modifications not given here; UniProt P13068 24-57, looked up) [wild type lantibiotic bacteriocin purified from L. lactis NZ9700; serine at position 29, reference compound]
E. durans 5133
  MIC: 0.52 mg/L and 0.156 µM
Lactococcus lactis HP
  Zone Diameter (mm): 15.2±0.2 mm
  % difference (zone relative to wild type): 100%
S. mitis UCC5000
  MIC: 8.38 mg/L and 2.5 µM
C. sakazakii DPC 6440 [1]
  Total area of inhibitory zone, peptide alone: 40.0±2.3 mm^2
  Total area of inhibitory zone, peptide + PMBN: 115.61±2.9 mm^2
[2]
  Zone of inhibition, agarose gel diffusion: 9.88±0.11 mm
E. coli 0157-H7 [3]
  Zone of inhibition, agarose gel diffusion: 9.81±0.04 mm
[4]
  MIC: 4.19 mg/L
[4]; listed as NisinA
  MIC: 1.25 µM
L. lactis MG1363 [5]
  MIC: 0.8 mg/L and 0.250 µM
L. lactis HP
  MIC: 0.2 mg/L and 0.062 µM
S. aureus RF122
  MIC: 1.04 mg/L
S. aureus RF122; listed as NisinA
  MIC: 0.312 µM
L. monocytogenes 10403S
  MIC: 12.57 mg/L and 3.75 µM
L. monocytogenes LO28
  MIC: 6.28 mg/L and 1.875 µM
[6]
  MIC: 0.52 mg/L and 0.156 µM
[7]
  MIC: 0.52 mg/L and 0.156 µM
C. sakazakii DPC 6440 [8]
  Zone of inhibition, agarose gel diffusion: 9.77±0.17 mm
B. cereus DPC 6088
  MIC: 8.38 mg/L and 2.5 µM
B. cereus DPC 6089
  MIC: 8.38 mg/L and 2.5 µM
C. sakazakii DPC 6440 [10]
  MIC: 12.57 mg/L and 3.75 µM
[11]
  MIC: > 100 mg/L and > 30 µM
E. coli 0157-H7 [12]
  MIC: 50.28 mg/L and 15 µM
